Results taken from ChEMBL document CHEMBL1201862, “PubChem BioAssay data set” (2004).
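Tested at 5 concentrations; 48 h exposure; 96-well plates; endpoints linearly interpolated, else capped at highest concentration. The concentration for 50% growth inhibition is given as GI50.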 The source made the active and inactive calls. No stated cut-off is given here; in the data, active = GI50 up to about 1.1 µM and inactive = higher.

What was measured:
Assay in all cases: NCI tumour cell line growth inhibition, 48 h
SK-OV-3 = tested on: SK-OV-3
A498 = tested on: A498
DMS-273 = tested on: DMS-273
SF-539 = tested on: SF-539
SW-620 = tested on: SW-620
SNB-75 = tested on: SNB-75
SK-MEL-2 = tested on: SK-MEL-2
IGROV-1 = tested on: IGROV-1
SNB-19 = tested on: SNB-19
HT-29 = tested on: HT-29
LXFL 529 = tested on: LXFL 529
U-251 = tested on: U-251
KM12 = tested on: KM12
SK-MEL-5 = tested on: SK-MEL-5
HCT-15 = tested on: HCT-15
NCI-H522 = tested on: NCI-H522
CCRF-CEM = tested on: CCRF-CEM
OVCAR-5 = tested on: OVCAR-5
K562 = tested on: K562
SK-MEL-28 = tested on: SK-MEL-28
SF-295 = tested on: SF-295
HCT-116 = tested on: HCT-116
HL-60 = tested on: HL-60
RPMI-8226 = tested on: RPMI-8226
NCI-H226 = tested on: NCI-H226
DLD-1 = tested on: DLD-1
TK-10 = tested on: TK-10
A549 = tested on: A549
Malme-3M = tested on: Malme-3M
OVCAR-4 = tested on: OVCAR-4
M19-MEL = tested on: M19-MEL
HCC 2998 = tested on: HCC 2998
DMS-114 = tested on: DMS-114
NCI-H23 = tested on: NCI-H23
HOP-18 = tested on: HOP-18
UO-31 = tested on: UO-31
HOP-92 = tested on: HOP-92
786-0 = tested on: 786-0
HOP-62 = tested on: HOP-62
OVCAR-3 = tested on: OVCAR-3
SN12C = tested on: SN12C
UACC-62 = tested on: UACC-62
COLO 205 = tested on: COLO 205
SNB-78 = tested on: SNB-78
CAKI-1 = tested on: CAKI-1
RXF 393 = tested on: RXF 393
SR = tested on: SR
ACHN = tested on: ACHN
UACC-257 = tested on: UACC-257
M14 = tested on: M14
SF-268 = tested on: SF-268
EKVX = tested on: EKVX
KM-20L2 = tested on: KM-20L2
MOLT-4 = tested on: MOLT-4
OVCAR-8 = tested on: OVCAR-8
NCI-H460 = tested on: NCI-H460
LOX IMVI = tested on: LOX IMVI

SMILES: COCN/C(N)=N/C#N
- GI50 (SK-OV-3): > 100 µM (inactive)
- GI50 (A498): > 100 µM (inactive)
- GI50 (DMS-273): 27.9 µM (inactive)
- GI50 (SF-539): > 100 µM (inactive)
- GI50 (SW-620): 15.7 µM (inactive)
- GI50 (SNB-75): > 100 µM (inactive)
- GI50 (SK-MEL-2): > 100 µM (inactive)
- GI50 (IGROV-1): > 100 µM (inactive)
- GI50 (SNB-19): > 100 µM (inactive)
- GI50 (HT-29): > 100 µM (inactive)
- GI50 (LXFL 529): > 100 µM (inactive)
- GI50 (U-251): 27.4 µM (inactive)
- GI50 (KM12): > 100 µM (inactive)
- GI50 (SK-MEL-5): > 100 µM (inactive)
- GI50 (HCT-15): 15.7 µM
- GI50 (NCI-H522): > 100 µM (inactive)
- GI50 (CCRF-CEM): > 100 µM (inactive)
- GI50 (OVCAR-5): > 100 µM (inactive)
- GI50 (K562): > 100 µM (inactive)
- GI50 (SK-MEL-28): > 100 µM (inactive)
- GI50 (SF-295): > 100 µM (inactive)
- GI50 (HCT-116): 75 µM (inactive)
- GI50 (HL-60): > 100 µM (inactive)
- GI50 (RPMI-8226): > 100 µM (inactive)
- GI50 (NCI-H226): > 100 µM (inactive)
- GI50 (DLD-1): 42 µM (inactive)
- GI50 (TK-10): > 100 µM (inactive)
- GI50 (A549): > 100 µM (inactive)
- GI50 (Malme-3M): > 100 µM (inactive)
- GI50 (OVCAR-4): > 100 µM (inactive)
- GI50 (M19-MEL): 41.7 µM (inactive)
- GI50 (HCC 2998): > 100 µM (inactive)
- GI50 (DMS-114): 18.4 µM (inactive)
- GI50 (NCI-H23): > 100 µM (inactive)
- GI50 (HOP-18): > 100 µM (inactive)
- GI50 (UO-31): > 100 µM (inactive)
- GI50 (HOP-92): > 100 µM (inactive)
- GI50 (786-0): 80.4 µM (inactive)
- GI50 (HOP-62): > 100 µM (inactive)
- GI50 (OVCAR-3): > 100 µM (inactive)
- GI50 (SN12C): > 100 µM (inactive)
- GI50 (UACC-62): > 100 µM (inactive)
- GI50 (COLO 205): 21.7 µM (inactive)
- GI50 (SNB-78): > 100 µM (inactive)
- GI50 (CAKI-1): > 100 µM (inactive)
- GI50 (RXF 393): > 100 µM (inactive)
- GI50 (SR): 15.1 µM (inactive)
- GI50 (ACHN): > 100 µM (inactive)
- GI50 (UACC-257): > 100 µM (inactive)
- GI50 (M14): > 100 µM (inactive)
- GI50 (SF-268): 85.9 µM (inactive)
- GI50 (EKVX): > 100 µM (inactive)
- GI50 (KM-20L2): > 100 µM (inactive)
- GI50 (MOLT-4): > 100 µM (inactive)
- GI50 (OVCAR-8): > 100 µM (inactive)
- GI50 (NCI-H460): > 100 µM (inactive)

SMILES: N#CC(NNC(=O)c1ccccc1O)c1ccccc1 (stereo not drawn)
- GI50 (SK-OV-3): 3.62 µM (inactive)
- GI50 (DMS-273): 0.468 µM (active)
- GI50 (SF-539): 3.33 µM (inactive)
- GI50 (SW-620): 8.02 µM (inactive)
- GI50 (SNB-75): 0.38 µM (active)
- GI50 (SK-MEL-2): 2.55 µM (inactive)
- GI50 (IGROV-1): 1.13 µM (inactive)
- GI50 (HT-29): 26 µM (inactive)
- GI50 (LXFL 529): 0.652 µM (active)
- GI50 (U-251): 0.486 µM (active)
- GI50 (KM12): 1.61 µM (inactive)
- GI50 (SK-MEL-5): 16.1 µM (inactive)
- GI50 (HCT-15): 2.73 µM
- GI50 (NCI-H522): 10.2 µM (inactive)
- GI50 (CCRF-CEM): 0.855 µM (active)
- GI50 (OVCAR-5): 22.1 µM (inactive)
- GI50 (K562): 0.404 µM (active)
- GI50 (SK-MEL-28): > 100 µM (inactive)
- GI50 (SF-295): 2.89 µM (inactive)
- GI50 (HCT-116): 0.577 µM (active)
- GI50 (HL-60): 1.8 µM (inactive)
- GI50 (RPMI-8226): 6.32 µM (inactive)
- GI50 (NCI-H226): 5.87 µM (inactive)
- GI50 (DLD-1): 2.63 µM (inactive)
- GI50 (TK-10): 4.3 µM (inactive)
- GI50 (A549): 0.423 µM (active)
- GI50 (Malme-3M): 4.75 µM (inactive)
- GI50 (OVCAR-4): 3.85 µM (inactive)
- GI50 (M19-MEL): 1.32 µM (inactive)
- GI50 (DMS-114): 0.721 µM (active)
- GI50 (NCI-H23): 1.72 µM (inactive)
- GI50 (HOP-18): 12.6 µM (inactive)
- GI50 (UO-31): 0.562 µM (active)
- GI50 (HOP-92): 0.695 µM (active)
- GI50 (786-0): 2.5 µM (inactive)
- GI50 (HOP-62): 5.89 µM (inactive)
- GI50 (OVCAR-3): 3.12 µM (inactive)
- GI50 (SN12C): 9.08 µM (inactive)
- GI50 (UACC-62): 0.398 µM (active)
- GI50 (COLO 205): 33.7 µM (inactive)
- GI50 (SNB-78): 0.9 µM (active)
- GI50 (CAKI-1): 2.91 µM (inactive)
- GI50 (RXF 393): 1.03 µM (active)
- GI50 (SR): 0.689 µM (active)
- GI50 (LOX IMVI): 2.9 µM (inactive)
- GI50 (ACHN): 0.479 µM (active)
- GI50 (UACC-257): 5.94 µM (inactive)
- GI50 (M14): 0.942 µM (active)
- GI50 (SF-268): 0.422 µM (active)
- GI50 (KM-20L2): 22 µM (inactive)
- GI50 (MOLT-4): 2.15 µM (inactive)
- GI50 (OVCAR-8): 2.81 µM (inactive)
- GI50 (NCI-H460): 0.646 µM (active)

SMILES: CC(C)S(=O)(=O)n1c(N)nc2ccc(/C(=N/O)c3ccccc3)cc21 [ENVIROXIME]
- GI50 (SK-OV-3): 22.4 µM (inactive)
- GI50 (A498): 8.32 µM (inactive)
- GI50 (DMS-273): 31.4 µM (inactive)
- GI50 (SF-539): 15 µM (inactive)
- GI50 (SW-620): 21.8 µM (inactive)
- GI50 (SNB-75): 3.26 µM (inactive)
- GI50 (SK-MEL-2): 20.9 µM (inactive)
- GI50 (IGROV-1): 19 µM (inactive)
- GI50 (SNB-19): 30 µM (inactive)
- GI50 (HT-29): 16.9 µM (inactive)
- GI50 (LXFL 529): 41.4 µM (inactive)
- GI50 (U-251): 39.3 µM (inactive)
- GI50 (KM12): 20.6 µM (inactive)
- GI50 (HCT-15): 23.4 µM
- GI50 (NCI-H522): 17.2 µM (inactive)
- GI50 (CCRF-CEM): 10.6 µM (inactive)
- GI50 (OVCAR-5): 21 µM (inactive)
- GI50 (K562): 27.2 µM (inactive)
- GI50 (SK-MEL-28): 36.1 µM (inactive)
- GI50 (SF-295): 18.2 µM (inactive)
- GI50 (HCT-116): 18.6 µM (inactive)
- GI50 (HL-60): 12.2 µM (inactive)
- GI50 (RPMI-8226): 10.3 µM (inactive)
- GI50 (NCI-H226): 4.63 µM (inactive)
- GI50 (DLD-1): 26.2 µM (inactive)
- GI50 (TK-10): 32.4 µM (inactive)
- GI50 (A549): 14.2 µM (inactive)
- GI50 (Malme-3M): 45.4 µM (inactive)
- GI50 (OVCAR-4): 23.5 µM (inactive)
- GI50 (M19-MEL): 34 µM (inactive)
- GI50 (HCC 2998): 22 µM (inactive)
- GI50 (DMS-114): 16.9 µM (inactive)
- GI50 (NCI-H23): 21.8 µM (inactive)
- GI50 (UO-31): 17.3 µM (inactive)
- GI50 (HOP-92): 3.61 µM (inactive)
- GI50 (786-0): 40.3 µM (inactive)
- GI50 (HOP-62): 13.9 µM (inactive)
- GI50 (OVCAR-3): 18.6 µM (inactive)
- GI50 (SN12C): 27.8 µM (inactive)
- GI50 (UACC-62): 23.1 µM (inactive)
- GI50 (COLO 205): 17.5 µM (inactive)
- GI50 (SNB-78): 36.4 µM (inactive)
- GI50 (CAKI-1): 14.2 µM (inactive)
- GI50 (RXF 393): 11.4 µM (inactive)
- GI50 (SR): 0.223 µM (active)
- GI50 (ACHN): 13.7 µM (inactive)
- GI50 (UACC-257): 44.5 µM (inactive)
- GI50 (M14): 17.9 µM (inactive)
- GI50 (SF-268): 27.7 µM (inactive)
- GI50 (EKVX): 16.4 µM (inactive)
- GI50 (KM-20L2): 16 µM (inactive)
- GI50 (MOLT-4): 14 µM (inactive)
- GI50 (OVCAR-8): 30.3 µM (inactive)
- GI50 (NCI-H460): 26.1 µM (inactive)
